Measurements reported in US20240215577A1, “FUNGICIDAL PYRIDONES” (FMC Corporation, priority 2021, published 2024).

Experiments:
Zymoseptoria tritici = assay: Test A: wheat leaf blotch, preventive spray on wheat seedlings; format: in vivo; conditions: 100 = 100% disease control, 0 = no control; for pest or weed control at 50 ppm: Zymoseptoria tritici, read-out: Test A disease control rating
Method in brief: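 Wheat seedlings were sprayed to run-off with compound in acetone/water 50/50 containing 250 ppm PEG400 and inoculated with Z. tritici spores the next day. Plants were held 48 h saturated at 24 °C, then 17 days at 20 °C. Disease was rated 0–100% control relative to controls.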

[1] = tested on: Puccinia recondita f. sp. tritici; assay: Test B: wheat leaf rust, preventive spray on wheat seedlings; format: in vivo; conditions: 100 = 100% disease control, 0 = no control; for pest or weed control at 50 ppm: Puccinia recondita, read-out: Test B disease control rating
Method in brief: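 Wheat seedlings sprayed to run-off with compound suspended at set ppm in 50/50 acetone/water (3% acetone pre-dissolution, 250 ppm PEG400); inoculated with rust spores next day. Held 24 h saturated at 20° C., then 7 days in growth chamber at 20° C.; visual rating, 0–100% disease control versus controls.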

[2] = tested on: Blumeria graminis f. sp. tritici; assay: Test C: wheat powdery mildew, preventive spray on wheat seedlings; format: in vivo; conditions: 100 = 100% disease control, 0 = no control; for pest or weed control at 50 ppm: Blumeria graminis, read-out: Test C disease control rating
Method in brief: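 Preventive assay: wheat seedlings sprayed to run-off with compound at the stated ppm (acetone/water 50/50, 250 ppm PEG400), dusted with B. graminis f. sp. tritici spores the following day, then kept 8 days at 20°C. Disease control visually scored 0-100 versus controls.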

Phakopsora pachyrhizi = assay: Test D: Asian soybean rust, preventive spray on soybean seedlings; format: in vivo; conditions: 100 = 100% disease control, 0 = no control; for pest or weed control at 50 ppm: Phakopsora pachyrhizi, 216 h, read-out: Test D disease control rating
Method in brief: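 Soybean seedlings sprayed to run-off with compound suspension (ppm, in 50/50 acetone/water with 250 ppm PEG400), inoculated next day with P. pachyrhizi spores, held 24 h saturated at 22°C then 8 days at 22°C. Visual rating 0-100% disease control relative to controls.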

Botrytis cinerea = assay: Test E: tomato Botrytis, preventive spray on tomato seedlings; format: in vivo; conditions: 100 = 100% disease control, 0 = no control; for pest or weed control at 50 ppm: Botrytis cinerea, read-out: Test E disease control rating
Method in brief: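 Compounds dissolved in acetone (3% of final volume), suspended in 50/50 acetone/water with 250 ppm PEG400, sprayed to run-off on seedlings. Spore inoculation next day; 48 h saturated atmosphere at 20° C, then 3 days at 24° C. Visual disease rating 0–100% control relative to controls.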

Alternaria solani = assay: Test F: tomato early blight, preventive spray on tomato seedlings; format: in vivo; conditions: 100 = 100% disease control, 0 = no control; for pest or weed control at 50 ppm: Alternaria solani, read-out: Test F disease control rating
Method in brief: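 Compounds in acetone/water (50/50) with 250 ppm PEG400 were sprayed to run-off on tomato seedlings and inoculated with Alternaria solani spores the next day. Plants were held in saturated humidity at 27° C for 48 h, then at 20° C for 3 days. Disease control was rated visually, 0–100, against controls.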

Molecule `COc1cc(OC)c(Cl)c(-c2cn(C)c(=O)c(C)c2-c2ccc(F)cc2Cl)c1` [Compound 13, 5-(2-chloro-3,5-dimethoxyphenyl)-4-(2-chloro-4-fluorophenyl)-1,3-dimethyl-2(1H)-pyridinone] has a pest or weed control at 50 ppm (Zymoseptoria tritici; 50 ppm) of 100%, a pest or weed control at 50 ppm ([1]; 50 ppm) of 100% and a pest or weed control at 50 ppm ([2]; 50 ppm) of 100%. It also gave a melting point of 140 to 143 °C, a pest or weed control at 50 ppm (Phakopsora pachyrhizi; 50 ppm) of 100% and a pest or weed control at 50 ppm (Botrytis cinerea; 50 ppm) of 94%. The pest or weed control at 50 ppm (Alternaria solani; 50 ppm) was 100%.

Molecule `COc1ccc(Br)c(-c2cn(C)c(=O)c(Cl)c2-c2ccc(F)cc2F)c1` [Compound 20, 5-(2-bromo-5-methoxyphenyl)-3-chloro-4-(2,4-difluorophenyl)-1-methyl-2(1H)-pyridinone] has a pest or weed control at 50 ppm (Zymoseptoria tritici; 50 ppm) of 100%, a pest or weed control at 50 ppm ([1]; 50 ppm) of 100% and a pest or weed control at 50 ppm ([2]; 50 ppm) of 98%. It also gave a melting point of 227 to 230 °C, a pest or weed control at 50 ppm (Phakopsora pachyrhizi; 50 ppm) of 97% and a pest or weed control at 50 ppm (Botrytis cinerea; 50 ppm) of 98%. For the same molecule, the pest or weed control at 50 ppm (Alternaria solani; 50 ppm) was 99%.

`COc1cc(OC)c(Cl)c(-c2cn(C)c(=O)c(Cl)c2-c2ccc(F)cc2F)c1` [Compound 29, 3-chloro-5-(2-chloro-3,5-dimethoxyphenyl)-4-(2,4-difluorophenyl)-1-methyl-2(1H)-pyridinone] showed a pest or weed control at 50 ppm (Zymoseptoria tritici; 50 ppm) of 100%, a pest or weed control at 50 ppm ([1]; 50 ppm) of 100% and a pest or weed control at 50 ppm ([2]; 50 ppm) of 99%. The melting point was 189 to 192 °C, the pest or weed control at 50 ppm (Phakopsora pachyrhizi; 50 ppm) was 100% and the pest or weed control at 50 ppm (Botrytis cinerea; 50 ppm) was 94%. For the same molecule, the pest or weed control at 50 ppm (Alternaria solani; 50 ppm) was 99%.

Molecule `COc1cc(OC)c(Br)c(-c2cn(C)c(=O)c(Cl)c2-c2ccc(F)cc2F)c1` [Compound 9, 5-(2-bromo-3,5-dimethoxyphenyl)-3-chloro-4-(2,4-difluorophenyl)-1-methyl-2(1H)-pyridinone] has a pest or weed control at 50 ppm (Zymoseptoria tritici; 50 ppm) of 100%, a pest or weed control at 50 ppm ([1]; 50 ppm) of 100% and a pest or weed control at 50 ppm ([2]; 50 ppm) of 99%. The melting point was 211 to 214 °C, the pest or weed control at 50 ppm (Phakopsora pachyrhizi; 50 ppm) was 100% and the pest or weed control at 50 ppm (Botrytis cinerea; 50 ppm) was 98%. It also gave a pest or weed control at 50 ppm (Alternaria solani; 50 ppm) of 100%.

For `COc1ccc(Cl)c(-c2cn(C)c(=O)c(Cl)c2-c2ccc(F)cc2F)c1` [Compound 30, 3-chloro-5-(2-chloro-5-methoxyphenyl)-4-(2,4-difluorophenyl)-1-methyl-2(1H)-pyridinone], the pest or weed control at 50 ppm (Zymoseptoria tritici; 50 ppm) was 100%, the pest or weed control at 50 ppm ([1]; 50 ppm) was 100% and the pest or weed control at 50 ppm ([2]; 50 ppm) was 100%. The melting point was 192 to 195 °C, the pest or weed control at 50 ppm (Phakopsora pachyrhizi; 50 ppm) was 100% and the pest or weed control at 50 ppm (Botrytis cinerea; 50 ppm) was 94%. The pest or weed control at 50 ppm (Alternaria solani; 50 ppm) was 99%.

For `COc1cc(OC)c(F)c(-c2cn(C)c(=O)c(Cl)c2-c2ccc(F)cc2F)c1` [Compound 51, 3-chloro-4-(2,4-difluorophenyl)-5-(2-fluoro-3,5-dimethoxyphenyl)-1-methyl-2(1H)-pyridinone], the pest or weed control at 50 ppm (Zymoseptoria tritici; 50 ppm) was 100%, the pest or weed control at 50 ppm ([1]; 50 ppm) was 100% and the pest or weed control at 50 ppm ([2]; 50 ppm) was 98%. For the same molecule, the melting point was 155 to 158 °C, the pest or weed control at 50 ppm (Phakopsora pachyrhizi; 50 ppm) was 99% and the pest or weed control at 50 ppm (Botrytis cinerea; 50 ppm) was 98%. For the same molecule, the pest or weed control at 50 ppm (Alternaria solani; 50 ppm) was 100%.

With `Cn1cc(-c2cc(F)c(F)cc2F)c(-c2ccc(F)cc2Cl)c(Cl)c1=O` [Compound 26] the “Test A disease control rating” value (Zymoseptoria tritici; 50 ppm) was 99%, the “Test B disease control rating” value ([1]; 50 ppm) was 86% and the “Test C disease control rating” value ([2]; 50 ppm) was 0%. The “Test D disease control rating” value (Phakopsora pachyrhizi; 50 ppm) was 0%, the “Test E disease control rating” value (Botrytis cinerea; 50 ppm) was 83% and the “Test F disease control rating” value (Alternaria solani; 50 ppm) was 0%.

For `Cn1c(Cl)c(-c2ccc(F)cc2Cl)c(-c2c(F)cccc2F)c(Cl)c1=O` [Compound 44], the “Test A disease control rating” value (Zymoseptoria tritici; 50 ppm) was 98%, the “Test B disease control rating” value ([1]; 50 ppm) was 93% and the “Test C disease control rating” value ([2]; 50 ppm) was 79%. The “Test D disease control rating” value (Phakopsora pachyrhizi; 50 ppm) was 96%, the “Test E disease control rating” value (Botrytis cinerea; 50 ppm) was 40% and the “Test F disease control rating” value (Alternaria solani; 50 ppm) was 0%.

In the case of `CCOn1cc(-c2cc(OC)cc(OC)c2Cl)c(-c2ccc(F)cc2Cl)c(Cl)c1=O` [Compound 46], the “Test A disease control rating” value (Zymoseptoria tritici; 250 ppm) is reported as 99%, the “Test B disease control rating” value ([1]; 250 ppm) is reported as 100% and the “Test C disease control rating” value ([2]; 250 ppm) is reported as 92%. For the same molecule, the “Test D disease control rating” value (Phakopsora pachyrhizi; 250 ppm) was 99%, the “Test E disease control rating” value (Botrytis cinerea; 250 ppm) was 88% and the “Test F disease control rating” value (Alternaria solani; 250 ppm) was 47%.
